Assay results as given in patent US20220089592A1, “IMIDAZO[1,2-A]PYRIDINYL DERIVATIVES AS IRAK4 INHIBITORS” (priority 2019, published 2022).
Like-named read-outs stand apart in the source and are kept apart here.

Molecular target: T1, IRAK4 (Homo sapiens, UniProt Q9NWZ3)
T1 sequence (Q9NWZ3 1-460): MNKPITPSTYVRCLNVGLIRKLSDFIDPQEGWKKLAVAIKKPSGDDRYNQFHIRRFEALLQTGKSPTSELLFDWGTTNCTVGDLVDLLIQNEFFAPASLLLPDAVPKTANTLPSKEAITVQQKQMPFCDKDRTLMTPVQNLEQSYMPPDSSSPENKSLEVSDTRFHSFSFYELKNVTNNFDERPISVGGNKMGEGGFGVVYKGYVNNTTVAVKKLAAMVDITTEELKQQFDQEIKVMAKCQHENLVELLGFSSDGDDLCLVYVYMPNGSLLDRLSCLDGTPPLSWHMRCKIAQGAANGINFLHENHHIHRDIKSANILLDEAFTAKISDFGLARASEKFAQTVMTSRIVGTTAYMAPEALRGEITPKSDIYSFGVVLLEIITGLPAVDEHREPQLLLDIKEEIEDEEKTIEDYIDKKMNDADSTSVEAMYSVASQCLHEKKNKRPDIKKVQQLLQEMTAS
Test: 2-hour 1 mM ATP IRAK4 Biochemical assay (as above, but with 100 pM IRAK4 and 1 mM ATP)
Experimental: The 2-hour 10 μM ATP Biochemical Assay employs a MesoScale Detection (MSD) format.
The activity is quenched with 11 μl of 70 mM EDTA, pH 8.
To detect the phosphorylated biotinylated peptide substrate, 30 μl of the quenched reaction mixture is added to equivalent wells of a 384 well streptavidin coated MesoScale plate (Meso Scale Discovery #L21SA-1). After a 1 hour incubation of the plate for 1 hour at room temperature with gentle mixing, the plate wells are washed 3 times with 50 mM Tris, pH 7.5, 150 mM NaCl, 0.02% Tween-20.
A 25 μl volume of 1:500 anti-P-Threonine Rabbit polyclonal Antibody plus 1:500 Goat-anti-Rabbit Sulfo Tag Antibody (Meso Scale Discovery R32AB-1) in 50 mM Tris, pH 7.5, 150 mM NaCl, 0.02% Tween-20 plus 2% BSA is then added to each well. After a 1-hour incubation of the plate for 1 hour at room temperature with gentle mixing, the plate wells are washed, 3 times with 50 mM Tris, pH 7.5, 150 mM NaCl, 0.02% Tween-20. A 40 μl volume of 2×MSD Read Buffer (Meso Scale Discovery R92TC-1) is added to each well, and the plate is read immediately in an MSD Plate Reader (Meso Scale Discovery).
The 2-hour 1 mM ATP IRAK4 Biochemical assay was performed as described above, but with 100 pM IRAK4 and 1 mM ATP.

[1] = IRAK4 MSD BIOCHEMICAL (1 mM ATP) IC50 (μM), 100 pM IRAK4, 2 hours

SMILES | IC50 [1] [µM] | IC50 (read-out: IRAK4 MSD BIOCHEMICAL (1 mM ATP) IC50, 100 pM IRAK4, 2 hours) [µM]
COc1nc(NC(=O)c2cccc(C(F)F)n2)cn2cc(C3CCCOC3)nc12 (single isomer, unassigned) [Example 297, 6-(difluoromethyl)-N-(8-methoxy-2-(tetrahydro-2H-pyran-3-yl)imidazo[1,2-a]pyrazin-6-yl)picolinamide] | 0.004 | 
COc1nc(NC(=O)c2cccc(C(F)F)n2)cn2cc(C3CCCOC3)nc12 (single isomer, unassigned) [Example 298, 6-(difluoromethyl)-N-(8-methoxy-2-(tetrahydro-2H-pyran-3-yl)imidazo[1,2-a]pyrazin-6-yl)picolinamide] |  | 0.004
COc1nc(NC(=O)c2cccc(C(F)(F)F)n2)cn2cc(C3CCCOC3)nc12 (single isomer, unassigned) [Example 299, N-(8-methoxy-2-(tetrahydro-2H-pyran-3-yl)imidazo[1,2-a]pyrazin-6-yl)-6-(trifluoromethyl)picolinamide] | 0.007 | 
COc1nc(NC(=O)c2cccc(C(F)(F)F)n2)cn2cc(C3CCCOC3)nc12 (single isomer, unassigned) [Example 300, N-(8-methoxy-2-(tetrahydro-2H-pyran-3-yl)imidazo[1,2-a]pyrazin-6-yl)-6-(trifluoromethyl)picolinamide] | 0.005 | 
O=C(Nc1cn2cc(C3CCCOC3)nc2c(OC(F)F)n1)c1cccc(C(F)F)n1 (single isomer, unassigned) [Example 302, N-(8-(difluoromethoxy)-2-(tetrahydro-2H-pyran-3-yl)imidazo[1,2-a]pyrazin-6-yl)-6-(difluoromethyl)picolinamide] | 0.008 | 
COc1ncccc1C(=O)Nc1cn2cc(C34COC(C)(C3)C4)nc2cc1OC(C)C(F)(F)F (single isomer, unassigned) [Example 318, 2-methoxy-N-(2-(1-methyl-2-oxabicyclo[2.1.1]hexan-4-yl)-7-((1,1,1-trifluoropropan-2-yl)oxy)imidazo[1,2-a]pyridin-6-yl)nicotinamide] | 0.005 | 
COc1ncccc1C(=O)Nc1cn2cc(C34COC(C)(C3)C4)nc2cc1OC(C)C(F)(F)F (single isomer, unassigned) [Example 319, 2-methoxy-N-(2-(1-methyl-2-oxabicyclo[2.1.1]hexan-4-yl)-7-((1,1,1-trifluoropropan-2-yl)oxy)imidazo[1,2-a]pyridin-6-yl)nicotinamide] | 0.001 | 
CCC(C)Oc1c(NC(=O)c2cccnc2OC)cn2cc(C34COC(C)(C3)C4)nc2c1F (single isomer, unassigned) [Example 327, N-(7-(sec-butoxy)-8-fluoro-2-(1-methyl-2-oxabicyclo[2.1.1]hexan-4-yl)imidazo[1,2-a]pyridin-6-yl)-2-methoxynicotinamide] | 0.02 | 
CCC(C)Oc1c(NC(=O)c2cccnc2OC)cn2cc(C34COC(C)(C3)C4)nc2c1F (single isomer, unassigned) [Example 328, N-(7-(sec-butoxy)-8-fluoro-2-(1-methyl-2-oxabicyclo[2.1.1]hexan-4-yl)imidazo[1,2-a]pyridin-6-yl)-2-methoxynicotinamide] | 0.004 | 
CC1(C)CCC1Oc1cc2nc(C3CCOCC3)cn2cc1NC(=O)c1cccc(C(F)F)n1 (centres unmarked) [Example 177, 6-(difluoromethyl)-N-(7-(2,2-dimethylcyclobutoxy)-2-(tetrahydro-2H-pyran-4-yl)imidazo[1,2-a]pyridin-6-yl)picolinamide] | 0.001 | 
C[C@@H]1C[C@H](Oc2cc3nc(C4CCOCC4)cn3cc2NC(=O)c2cccc(C(F)F)n2)C[C@H](C)O1 [Example 187, 6-(difluoromethyl)-N-(7-(((2R*,4R*,6S*)-2,6-dimethyltetrahydro-2H-pyran-4-yl)oxy)-2-(tetrahydro-2H-pyran-4-yl)imidazo[1,2-a]pyridin-6-yl)picolinamide] | 0.001 | 
CCO[C@H]1C[C@H](Oc2cc3nc(C4CCOCC4)cn3cc2NC(=O)c2cccc(C(F)F)n2)C1 [Example 190, 6-(difluoromethyl)-N-(7-((1R*,3R*)-3-ethoxycyclobutoxy)-2-(tetrahydro-2H-pyran-4-yl)imidazo[1,2-a]pyridin-6-yl)picolinamide] | 0.001 | 

Next, values leading:

IC50 [1] [µM] | IC50 (read-out: IRAK4 MSD BIOCHEMICAL (1 mM ATP) IC50, 100 pM IRAK4, 2 hours) [µM] | SMILES
0.001 |  | CCOc1cc2nc(CCCOC)cn2cc1NC(=O)c1cccc(C(F)F)n1 [Example 12, 6-(difluoromethyl)-N-(7-ethoxy-2-(3-methoxypropyl)imidazo[1,2-a]pyridin-6-yl)picolinamide]
0.001 |  | CCOc1cc2nc(CC3CCOC3)cn2cc1NC(=O)c1cccc(C(F)F)n1 (centres unmarked) [Example 14, 6-(difluoromethyl)-N-(7-ethoxy-2-((tetrahydrofuran-3-yl)methyl)imidazo[1,2-a]pyridin-6-yl)picolinamide]
0.001 |  | CCOc1cc2nc(C3CN(CC(F)(F)F)C3)cn2cc1NC(=O)c1cccc(C(F)F)n1 [Example 77, 6-(difluoromethyl)-N-(7-ethoxy-2-(1-(2,2,2-trifluoroethyl)azetidin-3-yl)imidazo[1,2-a]pyridin-6-yl)picolinamide]
0.001 |  | CCOc1cc2nc(C3CN(CC(F)F)C3)cn2cc1NC(=O)c1cccc(C(F)F)n1 [Example 78, N-(2-(1-(2,2-difluoroethyl)azetidin-3-yl)-7-ethoxyimidazo[1,2-a]pyridin-6-yl)-6-(difluoromethyl)picolinamide]
0.001 |  | O=C(Nc1cn2cc(C3CCOCC3)nc2cc1OC1CCOC1)c1cccc(C(F)F)n1 (centres unmarked) [Example 183, 6-(difluoromethyl)-N-(2-(tetrahydro-2H-pyran-4-yl)-7-((tetrahydrofuran-3-yl)oxy)imidazo[1,2-a]pyridin-6-yl)picolinamide]
0.001 |  | O=C(Nc1cn2cc(C3CCOCC3)nc2cc1OCCF)c1cccc(C(F)F)n1 [Example 188, 6-(difluoromethyl)-N-(7-(2-fluoroethoxy)-2-(tetrahydro-2H-pyran-4-yl)imidazo[1,2-a]pyridin-6-yl)picolinamide]
0.002 |  | O=C(Nc1cn2cc(C3CCOCC3)nc2cc1OCC1CC(F)(F)C1)c1cccc(C(F)F)n1 [Example 191, N-(7-((3,3-difluorocyclobutyl)methoxy)-2-(tetrahydro-2H-pyran-4-yl)imidazo[1,2-a]pyridin-6-yl)-6-(difluoromethyl)picolinamide]
0.002 |  | O=C(Nc1cn2cc(C3CCOCC3)nc2cc1OCCOC(F)F)c1cccc(C(F)F)n1 [Example 192, N-(7-(2-(difluoromethoxy)ethoxy)-2-(tetrahydro-2H-pyran-4-yl)imidazo[1,2-a]pyridin-6-yl)-6-(difluoromethyl)picolinamide]
0.001 |  | O=C(Nc1cn2cc(C3CCOCC3)nc2cc1OCC1CCCOC1)c1cccc(C(F)F)n1 (centres unmarked) [Example 193, 6-(difluoromethyl)-N-(7-((tetrahydro-2H-pyran-3-yl)methoxy)-2-(tetrahydro-2H-pyran-4-yl)imidazo[1,2-a]pyridin-6-yl)picolinamide]
0.002 |  | O=C(Nc1cn2cc(C3CCOCC3)nc2cc1OCC1CC12CCOC2)c1cccc(C(F)F)n1 (centres unmarked) [Example 194, N-(7-((5-oxaspiro[2.4]heptan-1-yl)methoxy)-2-(tetrahydro-2H-pyran-4-yl)imidazo[1,2-a]pyridin-6-yl)-6-(difluoromethyl)picolinamide]
0.002 |  | O=C(Nc1cn2cc(C3CCOCC3)nc2cc1OCCC1CCOC1)c1cccc(C(F)F)n1 (centres unmarked) [Example 195, 6-(difluoromethyl)-N-(2-(tetrahydro-2H-pyran-4-yl)-7-(2-(tetrahydrofuran-3-yl)ethoxy)imidazo[1,2-a]pyridin-6-yl)picolinamide]
